Entries after “also recorded” stand apart in the source; their conditions may differ. Like-named read-outs stand apart in the source and are kept apart here.

Experiment [1] concerns the target T1, porcine pancreatic α-amylase (Sus scrofa, UniProt P00690).
T1 construct: α-Amylase from porcine pancreas; purchased Sigma-Aldrich Co. LLC (St. Louis, MO); host or cells: porcine pancreas (tissue-derived commercial preparation)
T1 sequence (P00690 16-511): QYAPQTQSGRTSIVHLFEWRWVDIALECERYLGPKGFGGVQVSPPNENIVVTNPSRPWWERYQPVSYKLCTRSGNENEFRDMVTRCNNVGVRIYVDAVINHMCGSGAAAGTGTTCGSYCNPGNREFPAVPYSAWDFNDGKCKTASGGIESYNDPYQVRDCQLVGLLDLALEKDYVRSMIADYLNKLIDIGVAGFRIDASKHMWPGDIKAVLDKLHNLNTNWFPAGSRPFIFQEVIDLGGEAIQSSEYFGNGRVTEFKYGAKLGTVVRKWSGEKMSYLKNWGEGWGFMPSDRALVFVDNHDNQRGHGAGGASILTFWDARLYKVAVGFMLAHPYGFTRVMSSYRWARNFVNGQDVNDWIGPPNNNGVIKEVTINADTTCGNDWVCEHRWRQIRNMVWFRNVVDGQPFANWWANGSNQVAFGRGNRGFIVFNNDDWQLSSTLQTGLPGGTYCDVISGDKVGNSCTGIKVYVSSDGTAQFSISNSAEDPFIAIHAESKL
Briefly: In vitro pancreatic α-amylase inhibition assay (CNPG3 substrate, 405 nm).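 For all read-outs here: enzyme rate taken from the absorbance slope between 5 and 30 min of CNPG3 hydrolysis, inhibition derived from these rates, at least three independent experiments.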 The format is biochemical. To be noted: for IC50: enzyme 0.2 U/mL, CNPG3 0.5 mM, pH 6.8, 37 °C; for Inhibition of α-amylase activity (in words): up to the highest tested concentration (200 µM).

Experiment [2] concerns the target T2, α-amylase from porcine pancreas (Sus scrofa, UniProt P00690).
T2 construct: α-Amylase from porcine pancreas; purchased Sigma-Aldrich Co. LLC (St. Louis, MO); host or cells: porcine pancreas (tissue-derived commercial preparation)
T2 sequence (P00690 16-511): T1 sequence (P00690 16-511)
In words: Inhibitory kinetics of α-amylase (nonlinear regression, Excel Solver). To be noted: for Type of inhibition: CNPG3 0.25, 0.5 and 1 mM, best model by F test and AIC; for Vmax: best model; for V max (Solver fit): rate axis DA/min. The format is biochemical.

The subject of another experiment is α-amylase. On the set-up: method as in Kim et al.[55] and Yoon and Robyt,[52]. Conditions: ref Kim et al.[55] and Yoon and Robyt,[52]; cited from earlier work.
In experiment [3] the target is T1, porcine pancreatic α-amylase. On the set-up: method as in Tadera et al.,[21]. To be noted: highest tested concentration of 0.5 mM; ref Tadera et al.,[21]; cited from earlier work.
The mark [4] stands for this setting: 200 µM, mean ± SEM, read-out: Inhibition (%) at the highest tested concentration.
Setting [5] is: competitive inhibition constant, ± SD (jackknife), read-out: Kic.
Setting [6] is: supplement, competitive inhibition model.
[7] abbreviates: supplement, competitive inhibition model, read-out: K ic (Solver fit).

Consider `O=c1cc(-c2ccccc2)oc2ccccc12` [A1, Flavone], for which, in experiment [1] (setting [4]), the inhibition at 200 µM was less than 20%. The same measure, in the same setting: next, `O=c1cc(-c2cccc(O)c2)oc2ccccc12` [A2]: less than 20%; `O=c1cc(-c2ccc(O)cc2)oc2ccccc12` [A3]: less than 20%. `O=c1cc(-c2ccc(O)c(O)c2)oc2ccccc12` [A4]: in experiment [1] (setting [4]), the inhibition at 200 µM came out at 46 ± 2%. On the same count and under the same terms, next, `O=c1c(O)c(-c2ccc(O)c(O)c2)oc2ccccc12` [A5]: 31 ± 3%.

On to `COc1ccc(-c2oc3ccccc3c(=O)c2O)cc1OC` [A6], for which the inhibition at 200 µM in experiment [1] (setting [4]) was less than 20%. By Vmax is commonly meant the rate approached at saturating substrate. Take `C[C@H]1O[C@H](O[C@H]2[C@H](O)[C@@H](O)[C@@H](O[C@H]3[C@H](O)[C@@H](O)C(O)O[C@@H]3CO)O[C@@H]2CO)[C@H](O)[C@@H](O)[C@@H]1N[C@H]1C=C(CO)[C@@H](O)[C@H](O)[C@H]1O` (stereo partly drawn) [Acarbose, reference compound]: the Type of inhibition result in experiment [2] was “Mixed”; in experiment [2] (listed as acarbose), “mixed-type inhibitor; also recorded: mixed-type inhibition”; with α-amylase it was “mixed type inhibitor”. In experiment [2] (± SD (jackknife)), the Vmax is 12.0 ± 0.9 µmol/min. Further, the “V max (Solver fit)” value in experiment [2] (supplement, mixed inhibition model) is given as 39,76745004. Regarding `O=c1cc(-c2ccccc2)oc2cccc(O)c12` [B1], in experiment [1] (setting [4]), the inhibition at 200 µM was less than 2%. Consider `O=c1cc(-c2cccc(O)c2)oc2cccc(O)c12` [B2], for which the inhibition at 200 µM in experiment [1] (setting [4]) was less than 20%. Turning to `O=c1cc(-c2ccc(O)cc2)oc2cccc(O)c12` [B3], in experiment [1] (setting [4]), the inhibition at 200 µM is less than 20%. A word on the IC50: it is the concentration that inhibits the measured activity by half. High values mean lower potency, low ones higher potency. Turning to `O=c1cc(-c2ccc(O)c(O)c2)oc2cccc(O)c12` [B4], the Type of inhibition entry in experiment [2] is “competitive inhibitors; also recorded: competitive inhibition”. The Vmax in experiment [2] (± SD (jackknife)) came to 12.0 ± 0.6 µmol/min. Further, the values for the Ki in experiment [2] (setting [5]) and in experiment [2] (setting [7]) were 132 ± 15 µM and 132 µM, respectively. For the same compound, the “V max (Solver fit)” value in experiment [2] (setting [6]) is 40,026555. Further, the IC50 in experiment [1] (mean ± SEM) is 148 ± 5 µM.

On to `O=c1cc(-c2ccccc2)oc2cc(O)ccc12` [C1], for which, in experiment [1] (read-out: Inhibition (%) at the highest tested concentration), the inhibition at 200 µM is less than 20%. As for `O=c1cc(-c2cccc(O)c2)oc2cc(O)ccc12` [C2], the inhibition at 200 µM in experiment [1] (setting [4]) was determined as 28 ± 3%.

As for `O=c1cc(-c2ccc(O)cc2)oc2cc(O)ccc12` [C3], in experiment [1] (setting [4]), the inhibition at 200 µM was 36 ± 3%. Further, the “Inhibition of α-amylase activity (in words)” value in experiment [1] is “lack of inhibitory activity”. The corresponding values for `O=c1c(O)c(-c2cccc(O)c2)oc2cc(O)ccc12` [C4] are 34 ± 3% and “low activity”. For `O=c1c(O)c(-c2ccc(O)cc2)oc2cc(O)ccc12` [C5], the Type of inhibition entry in experiment [2] is “competitive inhibitors; also recorded: competitive inhibition”. For the same compound, the maximal velocity (Vmax) in experiment [2] (± SD (jackknife)) turned out to be 10.5 ± 0.9 µmol/min. For the same compound, the Ki in experiment [2] (setting [5]) came to 71 ± 7 µM. For the same compound, in experiment [2] (setting [6]), the “K m (Solver fit)” value is 0,9963 mM and the “V max (Solver fit)” value is reported as 35,186. Further, the Ki in experiment [2] (setting [7]) came to 71.4 µM. Also, in experiment [1] (mean ± SEM), the IC50 came to 59 ± 4 µM. `O=c1cc(-c2ccc(O)c(O)c2)oc2cc(O)ccc12` [C6] showed a concentration for half-maximal inhibition (IC50) in experiment [1] (mean ± SEM) of 131 ± 1 µM.

For the compound `COc1cccc(-c2oc3cc(OC)ccc3c(=O)c2O)c1` [C7], the inhibition at 200 µM in experiment [1] (setting [4]) was less than 20%. Further, the “Inhibition of α-amylase activity (in words)” value in experiment [1] was “remained unchanged; also recorded: no inhibitory activity”. Turning to `COc1ccc(-c2oc3cc(OC)ccc3c(=O)c2O)cc1` [C8], in experiment [1] (100 µM, mean ± SEM, read-out: Inhibition (%) at the highest tested concentration), the inhibition at 100 µM is less than 20%. Moreover, the “Inhibition of α-amylase activity (in words)” value in experiment [1] was “remained unchanged; also recorded: no inhibitory activity”. With `O=c1cc(-c2ccccc2)oc2cc(O)cc(O)c12` [D1, Chrysin], the inhibition at 200 µM in experiment [1] (setting [4]) was 22 ± 3%. For the compound `O=c1c(O)c(-c2ccccc2)oc2cc(O)cc(O)c12` [D2, Galangin], the inhibition at 200 µM in experiment [1] (setting [4]) is less than 20%. With `O=c1cc(-c2cccc(O)c2)oc2cc(O)cc(O)c12` [D4], the IC50 in experiment [1] (mean ± SEM) was roughly 200 µM.

The compound `O=c1c(O)c(-c2ccc(O)cc2)oc2cc(O)cc(O)c12` [D6, Kaempferol] registered a 50% inhibitory concentration (IC50) in experiment [1] (mean ± SEM) of 118 ± 7 µM. Take `O=c1cc(-c2ccc(O)c(O)c2)oc2cc(O)cc(O)c12` [D7, Luteolin]: in experiment [1] (fold, relative to D11), the “Decrease of inhibitory activity / increase of IC50 compared with D11” value is recorded as “two-fold”. Also, the midpoint of inhibition in experiment [1] (mean ± SEM), the IC50, lay at 78 ± 3 µM.

Compound `O=c1c(O)c(-c2cc(O)c(O)c(O)c2)oc2cc(O)cc(O)c12` [D9, Myricetin] registered an IC50 in experiment [1] (mean ± SEM) of 107 ± 6 µM.

Take `COc1ccc(-c2cc(=O)c3c(O)cc(O)cc3o2)cc1OC` [D18]: in experiment [1] (setting [4]), the inhibition at 200 µM worked out at 33 ± 3%.

Turning to `C[C@@H]1O[C@@H](OC[C@H]2O[C@@H](Oc3c(-c4ccc(O)c(O)c4)oc4cc(O)cc(O)c4c3=O)[C@H](O)[C@@H](O)[C@@H]2O)[C@H](O)[C@H](O)[C@H]1O` [D19, Rutin], the inhibition at 200 µM in experiment [1] (setting [4]) is less than 20%. For the same compound, the “Inhibition of α-amylase activity (in words)” value in experiment [1] was “no activity was found”.

On to `O=C1C[C@@H](c2ccc(O)cc2)Oc2cc(O)cc(O)c21` [E1, Naringenin], for which the “Inhibition of porcine pancreatic α-amylase activity (in words)” value in experiment [3] was “not able to inhibit”. Further, the inhibition at 200 µM in experiment [1] (setting [4]) is less than 20%. Moreover, in experiment [1], the “Inhibition of α-amylase activity (in words)” value was “not able to inhibit”. Consider `O=C1C[C@@H](c2ccc(O)c(O)c2)Oc2cc(O)cc(O)c21` [E2, Eriodictyol], for which the inhibition at 200 µM in experiment [1] (setting [4]) was less than 20%. In experiment [1], the “Inhibition of α-amylase activity (in words)” value is “not able to inhibit”. Regarding `O=C1c2c(O)cc(O)cc2OC(c2ccc(O)c(O)c2)C1O` (stereo not drawn) [E3, Taxifolin], in experiment [1] (setting [4]), the inhibition at 200 µM is less than 20%. Further, the “Inhibition of α-amylase activity (in words)” value in experiment [1] is reported as “not able to inhibit”. For Acacetin [D17], in experiment [1] (200 µM, mean ± SEM), the “Inhibition (%) at the highest tested concentration” value is recorded as less than 20%^200 µM*. Morin [D10]: the “Inhibition (%) at the highest tested concentration” value in experiment [1] (200 µM, mean ± SEM) was determined as 23 ± 1 %^200µM*.

Values taken from article PMC6366418, “Evaluation of a flavonoids library for inhibition of pancreatic α-amylase towards a structure–activity relationship” (Journal of Enzyme Inhibition and Medicinal Chemistry, 2019).
